Reference: patent US8354512B2, “Ligand and metal complex” (National Chiao Tung University, priority 2009, dated 2013)
Where two headings read alike, the source gives them in different places.

Columns and labels:
[1] = target: HSA (Homo sapiens, UniProt P02768); details: literature values; cited from earlier work
[2] = Water exchange rate and molecular rotational correlation time by 17O-NMR at 9.4 T; format: physicochemical; details: 298 K
Description: According to the disclosure of Chem. Rev., 1999, 99, 2293-2352, the relaxivity of the metal complex is affected by the hydration number q and the correlation time τc. The correlation time τc depends on three parameters: (1) molecular rotational correlation time (τR); (2) Electron longitudinal and transverse spin relaxation time (T1e, T2e); and (3) Water residence lifetime (τm) or Water exchange rate (kex), τm^−1=kex. Since Bz-CB-TTDA and CB-TTDA have the same hydration number, comparison between Bz-CB-TTDA and CB-TTDA in relaxivity can be determined by the aforesaid parameters, i.e., the higher the parameters, the higher will be the relaxivity.
Electron longitudinal and transverse spin relaxation time (T1e, T2e) of each test sample of the metal complexes was measured by using ^17O-NMR in a magnetic field of 9.4 T. The water exchange rate at 298 K (Kex^298) and the molecular rotational correlation time at 298 K (τR^298) of each test sample were determined by using three plots of “T1 versus temperature”, “T2 versus temperature” and “chemical shift versus temperature”.

[3] = cited from earlier work
[4] = Kinetic stability in PBS containing Zn2+; format: physicochemical; parameters: unit not given here; details: 2.5 mM complex, 2.5 mM ZnCl2, PBS pH 7.4, 37±0.1° C., three days, NMR 20 MHz
Procedure: Kinetic stability is evaluated by testing the stability of the metal complex in an environment containing a poisonous metal ion Zn^2+. The stability is defined as R1^p (t)/R1p (0), in which R1^P (t)=1/T1 (t), T1 is the relaxivity. The higher the R1^P (t)/R1p (0), the higher will be the stability.
2.5 mM of each of [Gd(Bz-CB-TTDA)]^2−−, [Gd(CB-TTDA)]^2− and [Gd(DTPA)]^2− was placed in a phosphate buffer saline (PBS, pH=7.4), followed by adding 2.5 mM of ZnCl2 to obtain a sample. The sample was subjected to reaction at 37±0.1° C. for three days (t=3), after which the relaxivity T1(t) of the sample was determined by using NMR (20 MHz).

Sequence of HSA (P02768 25-609): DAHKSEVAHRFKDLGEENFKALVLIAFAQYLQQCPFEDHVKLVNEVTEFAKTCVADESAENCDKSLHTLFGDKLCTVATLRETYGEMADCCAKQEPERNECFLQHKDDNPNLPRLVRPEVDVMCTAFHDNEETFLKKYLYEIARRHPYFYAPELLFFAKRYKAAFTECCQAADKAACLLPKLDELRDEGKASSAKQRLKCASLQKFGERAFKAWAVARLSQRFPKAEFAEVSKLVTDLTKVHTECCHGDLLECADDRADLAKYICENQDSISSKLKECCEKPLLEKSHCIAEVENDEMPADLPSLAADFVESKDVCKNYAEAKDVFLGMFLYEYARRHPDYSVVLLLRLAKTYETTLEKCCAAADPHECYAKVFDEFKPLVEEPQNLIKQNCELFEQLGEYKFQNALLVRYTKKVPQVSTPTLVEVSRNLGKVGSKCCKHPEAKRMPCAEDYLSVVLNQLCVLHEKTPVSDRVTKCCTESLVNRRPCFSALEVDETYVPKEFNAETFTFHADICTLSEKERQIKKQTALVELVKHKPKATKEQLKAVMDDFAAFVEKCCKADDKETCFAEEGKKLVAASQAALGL

τR^298 molecular rotational correlation time [2] [ps]	R1^p (t)/R1^p (0) [4]	SMILES	γ1^b bound relaxivity [1]	kex^298 water exchange rate [2]	γ1 relaxivity ([3]; pH 7.6 ± 0.1, Am. J. Roentgenol., 1984, 142, 619-624)	γ1 relaxivity ([3]; pH 7.5 ± 0.1, Inorg. Chem., 2005, 44, 382)
–	–	O=C(O)CN(CCN(CC(=O)O)CC(=O)O)CCN(CC(=O)O)C(COCc1ccccc1)C(=O)O (stereo not drawn) [[Gd(BOPTA)]^2−]	33.0^a mM^−1s^−1	–	–	–
103	49.79	O=C([O-])CN(CCN(CC(=O)[O-])CC(=O)[O-])CCN(CC(=O)[O-])CC(=O)[O-].[Gd+3] [[Gd(DTPA)]^2−]	–	4.1 10^6 s^−1	3.89 ± 0.03^a mM^−1s^−1	–
–	–	CCOc1ccc(C[C@@H](C(=O)O)N(CCN(CCN(CC(=O)O)CC(=O)O)CC(=O)O)CC(=O)O)cc1 [[Gd(S)-EOB-DTPA]^2−]	44.1^a mM^−1s^−1	–	–	–
104 ± 12.0	–	O=C([O-])CN(CCCN(CC(=O)[O-])CC(=O)[O-])CCN(CC(=O)[O-])CC(=O)[O-].[Gd+3] [[Gd(TTDA)]^2−]	–	146 ± 17.0 10^6 s^−1	–	3.85 ± 0.03^a mM^−1s^−1
